Read-outs that look alike come from different tables or passages of the source.
What was measured:
ICE = target: T1, ICE (Homo sapiens, UniProt P29466); experiment: Enzyme assay with UV-visible substrate (visible ICE assay, Succinyl-Tyr-Val-Ala-Asp-pNitroanilide); type: biochemical
T1 sequence (P29466 120-297 limits assumed): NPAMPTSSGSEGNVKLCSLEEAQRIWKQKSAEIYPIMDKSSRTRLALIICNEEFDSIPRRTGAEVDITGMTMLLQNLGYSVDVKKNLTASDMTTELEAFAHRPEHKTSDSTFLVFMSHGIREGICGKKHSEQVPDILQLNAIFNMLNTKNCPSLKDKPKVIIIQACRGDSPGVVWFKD
T1 sequence (P29466 317-404 limits assumed): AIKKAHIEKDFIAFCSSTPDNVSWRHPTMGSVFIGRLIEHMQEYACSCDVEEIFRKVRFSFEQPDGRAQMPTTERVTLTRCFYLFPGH
Method in brief: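 ICE preincubated with inhibitor in DMSO for 15 min at room temperature, then Suc-Tyr-Val-Ala-Asp-pNA added. pNA release read at 405-603 nm for 20 min at 37 °C, rate from linear fit in mOD/min. Ki and inhibition mode from fits of rates at varying inhibitor concentrations to standard kinetic equations.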

[1] = tested on: IL-1β, human peripheral blood mononuclear cells (PBMC); experiment: PBMC cell assay: IL-1β assay with human PBMC or enriched adherent mononuclear cells, LPS-stimulated; type: cell-based; details: Homo sapiens, PBMC, Table 17
Method in brief: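 Mature IL-1β is measured by ELISA in supernatants after 16–18 hr at 37 °C, 5% CO2, with LPS (5 ng/ml final) and test compound (0.1% DMSO final). Cells are human PBMC (6×10^6 cells/ml) or plate-adherent mononuclear cells (2.5−3.0×10^5 per well), and the 5–6 compound concentrations span the ICE Ki.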

[2] = In vivo rat clearance assay; details: plasma, iv
Procedure: In Vivo Rat Clearance Assay
Cannulations of the jugular and carotid vessels of rats under anesthesia were performed one day prior to the pharmacokinetic study. M. J. Free, R. A. Jaffee; ‘Cannulation techniques for the collection blood and other bodily fluids’; in: Animal Models; p. 480-495; N. J. Alexander, Ed.; Academic Press; (1978). Drug (10 mg/mL) was administered via the jugular vein in a vehicle usually consisting of: propylene glycol/saline, containing 100 mM sodium bicarbonate in a 1:1 ratio. Animals were dosed with 10-20 mg drug/kg and blood samples were drawn at 0, 2, 5, 7, 10, 15, 20, 30, 60, and 90 minutes from an indwelling carotid catheter. The blood was centrifuged to plasma and stored at −20° C. until analysis. Pharmacokinetic analysis of data was performed by non-linear regression using standard software such as RStrip (MicroMath Software, UT) and/or Pcnonlin (SCI Software, NC) to obtain clearance values.
Rat plasma was extracted with an equal volume of acetonitrile (containing 0.1% TFA). Samples were then centrifuged at approximately 1,000×g and the supernatant analyzed by gradient HPLC. A typical assay procedure is described below.
A standard curve was run at 20, 10, 5, 2 and 1 μg/mL concentrations.

IL-1β, human whole blood = experiment: Whole blood assay for IL-1β production; type: cell-based; details: Homo sapiens, Table 17; read-out: Whole human blood IC50
Method in brief: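 IL-1β was quantified by ELISA in plasma diluted 1:200. The plasma came from EDTA-anticoagulated human whole blood incubated at 30 °C for 16-18 h with LPS (final 5.0 ng/ml) plus a saline serial dilution of compound. Controls were no-LPS, no-inhibitor and highest-vehicle.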

[3] = tested on: IL-1β production, LPS-challenged mice; experiment: In vivo acute assay for efficacy as anti-inflammatory agent: LPS-induced IL-1β production in mice; parameters: species or system mouse; details: Mus musculus, po, LPS challenged mice, compound PO, 50 mg/kg, read-out: percent inhibition of IL-1β production
Method in brief: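 Serum IL-1β was measured by ELISA 7 h after an IP dose of 20 mg/kg LPS in CD1 mice, n=6 per group. Compounds in olive oil/DMSO/ethanol 90:5:5 were injected IP 1 h post-LPS (some analogs were dosed at challenge), and separate groups received 50 mg/kg by oral gavage.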

[4] = 0 h, administered 0 h relative to time of LPS challenge
[5] = 2 h, administered −2 h relative to time of LPS challenge

Row | Compound | Ki (ICE; Table 17) [nM] | IC50 [1] [µM] | melting point | clearance ([2]; Table 17) [mL/min/kg] | IC50 (IL-1β, human whole blood) [nM] | inhibition at 50 mg/kg [3, 4] [%] | inhibition at 50 mg/kg [3, 5] [%] | Ki (ICE; Table 5) [nM] | clearance ([2]; 10-20 mg/kg) [mL/min/kg] | inhibition at 50 mg/kg ([3]; 1 h, administered +1 h relative to time of LPS challenge) [%]
1 | O=C(O)C[C@H](NC(=O)[C@@H]1CCCN2C(=O)CC[C@H](NC(=O)c3ccccc3)C(=O)N12)C(=O)Cn1cnccc1=O [Compound 510d, [3S(1S,9S)]3-[6,10-Dioxo-1,2,3,4,7,8,9,10-octahydro-9-(phenycarbonylamino)-6H-pyridazino[1,2-a][1,2]diazepine-1-carboxamido]-4-oxo-5-{2-[4(3H)-pyrimidone]}pentanoic acid] | 2300 | > 20 | 140 to 180 °C |  |  |  |  |  |  | 
2 | O=C[C@H](CC(=O)O)NC(=O)[C@@H]1CCCN2C(=O)CCN(NC(=O)c3ccc(O)cc3)C(=O)N12 [Compound 1056, [3S(4S)]3-[6,10-Dioxo-7-(4-hydroxybenzoylamino)-1,2,3,4,7,8,9,10-octahydro-6H-pyridazino[1,2-a][1,2,4]triazepine-4-carboxamido]-4-oxobutanoic acid] | 170 |  | > 300 °C | 17 |  |  |  |  |  | 
3 | O=C(O)CC(NC(=O)Cn1c(Cc2ccccc2)ccc(NC(=O)CCc2ccccc2)c1=O)C(=O)COC(=O)c1c(Cl)cccc1Cl (stereo not drawn) [Compound 57b, N-2-(6-Benzyl-1,2-dihydro-2-oxo-3-(3-phenylpropionyl)amino-1-pyridyl)acetyl-3-amino-5-(2,6-dichloro-benzoyloxy)-4-oxo-pentanoic acid] |  |  | 116 to 120 °C (dec.) |  |  |  |  |  |  | 
4 | CC(=O)Nc1ccc(C(=O)N[C@H]2CCC(=O)N3CCC[C@@H](C(=O)N[C@H]4CC(=O)OC4OCc4ccccc4)N3C2=O)cc1 (stereo partly drawn) [Compound 213x, [1S,9S(2RS,3S)]9-[4-(Acetylamino)benzoylamino]-N-(2-benzyloxy-5-oxo-tetrahydrofuran-3-yl)-6,10-dioxo-1,2,3,4,7,8,9,10-octahydro-6H-pyridazino[1,2-a][1,2]diazepine-1-carboximide] |  | 4.5 | 150 to 170 °C |  | 2500 | 78 | 0 |  |  | 
5 | CCOC1OC(=O)C[C@@H]1NC(=O)[C@@H]1CCCN2C(=O)CC[C@H](NC(=O)c3cc4ccccc4[nH]3)C(=O)N12 (stereo partly drawn) [Compound 550o, [1S,9S(2RS,3S)]6,10-Dioxo-N-(2-ethoxy-5-oxotetrahydrofuran-3-yl)-9-(2-indoloylamino)-1,2,3,4,7,8,9,10-octahydro-6H-pyridazino[1,2-a][1,2]diazepine-1-carboxamide] |  | 0.45 | 155 to 170 °C |  | 3000 | 64 | 19 |  |  | 
6 | COC(=O)N[C@H]1CCC(=O)N2CCC[C@@H](C(=O)N[C@@H](CC(=O)O)C(=O)CSc3nnnn3-c3ccccc3)N2C1=O [Compound 280c, [3S(1S,9S)]3-[6,10-Dioxo-9-(methoxycarbonylamino)-1,2,3,4,7,8,9,10-octahydro-6H-pyridazino[1,2-a][1,2]diazepine-1-carboxamido]-4-oxo-5-[5-(1-phenyltetrazolyl)-thio]pentanoic acid] |  | 10 | 105 to 130 °C | 86 |  |  |  |  |  | 
7 | O=C[C@H](CC(=O)O)NC(=O)[C@@H]1CCCN2C(=O)CCN(NC(=O)Cc3ccccc3)C(=O)N12 [Compound 1095, [3S(4S)]3-(6,10-Dioxo-1,2,3,4,7,8,9,10-octahydro-7-phenylacetylamino-6H-pyridazino[1,2-a][1,2,4]triazepine-4-carboxamido)-4-oxobutanoic acid] | 360 | 6 | 180 to 186 °C | 28 |  |  |  |  |  | 
8 | COC(=O)N[C@H]1CCC(=O)N2CCC[C@@H](C(=O)N[C@@H](CC(=O)O)C(=O)COc3cccnc3)N2C1=O [Compound 283c, [3S(1S,9S)]3-[6,10-Dioxo-9-(methoxycarbonylamino)-1,2,3,4,7,8,9,10-octahydro-6H-pyridazino[1,2-a][1,2]diazepine-1-carboxamido]-4-oxo-5-(3-pyridinyloxy)pentanoic acid] |  | 4 | 90 to 105 °C | 50 |  |  |  |  |  | 
9 | O=C1C[C@H](NC(=O)[C@@H]2CCCN3C(=O)CC[C@H](NC(=O)c4ccccc4)C(=O)N23)C(OC2CCCC2)O1 (stereo partly drawn) [Compound 2100l, [1S,9S(2RS,3S)]9-Benzamido-N-(2-cyclopentyloxy-5-oxo-tetrahydrofuran-3-yl)-6,10-dioxo-1,2,3,4,7,8,9,10-octahydro-6H-pyridazino[1,2-a][1,2]diazepine-1-carboxamide] |  | 0.75 | 172 to 180 °C |  | 2200 | 28 | 52 |  |  | 
10 | O=C[C@H](CC(=O)O)NC(=O)[C@@H]1CCCN2C(=O)CC[C@H](NC(=O)c3ccc(O)cc3)C(=O)N12 [Compound 456] |  |  | > 260 °C |  |  | 69 | 41 | 4.5 | 12.7 | 56
11 | O=C[C@H](CC(=O)O)NC(=O)[C@@H]1CCCN2C(=O)CCN(NC(=O)Nc3ccccc3)C(=O)N12 [Compound 265f, [3S(4S)]3-[6,10-Dioxo-1,2,3,4,7,8,9,10-octahydro-7-(3-phenylureido)-6H-pyridazino[1,2-a][1,2,4]triazepine-4-carboxamido]-4-oxobutanoic acid] | 1200 |  | 157 to 162 °C | 24 |  |  |  |  |  | 
12 | COc1ccc(C(=O)NN2CCC(=O)N3CCC[C@@H](C(=O)N[C@H](C=O)CC(=O)O)N3C2=O)cc1 [Compound 1052, [3S(4S)]3-[6,10-Dioxo-7-(4-methoxybenzoylamino)-octahydro-6H-pyridazino[1,2-a][1,2,4]triazepine-4-carboxamido]-4-oxobutanoic acid] | 100 | 2.5 | 138 to 142 °C | 16 |  |  |  |  |  | 
13 | O=C[C@H](CC(=O)O)NC(=O)[C@@H]1CCCN2C(=O)CCN(NS(=O)(=O)c3ccc4ccccc4c3)C(=O)N12 [Compound 265a, [3S(4 S)]3-[6,10-Dioxo-7-(2-naphthalenesulfonyl)amino-1,2,3,4,7,8,9,10-octahydro-6H-pyridazino[1,2-a][1,2,4]triazepine-4-carboxamido]-4-oxobutanoic acid] | 2600 | 25 | 126 to 130 °C (dec.) |  |  |  |  |  |  | 
